Experimental data reported in PubChem BioAssay (NCI).
Several values for one entry are separate records, joined by “and”; a condition that tells them apart may be missing. Identical values can stand only once.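 The compound was tested at five concentrations on cells cultured in 96-well plates, with a 48-hour exposure period. At the GI50, growth is halved. TGI: total growth inhibition.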

Columns and labels:
Assay in all cases: NCI tumour cell line growth inhibition, 48 h
[1] = test system: MDA-N
[2] = test system: MDA-MB-231 breast
[3] = test system: OVCAR-4 ovarian
[4] = test system: HS 578T breast
[5] = test system: SN12K1 renal
[6] = test system: SNB-78 CNS
[7] = test system: DMS 114 small cell lung
[8] = test system: DMS 273 small cell lung
[9] = test system: SK-MEL-2 melanoma
[10] = test system: HOP-18 NSCLC
[11] = test system: DLD-1 colon
[12] = test system: MDA-MB-435
[13] = test system: SF-539 CNS
[14] = test system: HL-60(TB) leukemia
[15] = test system: OVCAR-8 ovarian
[16] = test system: HCC-2998 colon
[17] = test system: K-562 leukemia
[18] = test system: KM20L2 colon
[19] = test system: M14 melanoma
[20] = test system: P388 leukemia
[21] = test system: UACC-62 melanoma
[22] = test system: IGROV1 ovarian
[23] = test system: UO-31 renal
[24] = test system: SNB-19 CNS
[25] = test system: SW-620 colon
[26] = test system: KM12 colon
[27] = test system: OVCAR-3 ovarian
[28] = test system: MALME-3M melanoma
[29] = test system: HCT-15 colon
[30] = test system: HT29 colon
[31] = test system: SF-268 CNS
[32] = test system: SNB-75 CNS
[33] = test system: NCI-H460 lung
[34] = test system: XF 498 CNS
[35] = test system: SK-OV-3 ovarian
[36] = test system: HOP-62 NSCLC
[37] = test system: LOX IMVI melanoma
[38] = test system: RXF 393 renal
[39] = test system: MCF7 breast
[40] = test system: NCI/ADR-RES ovarian
[41] = test system: NCI-H226 lung
[42] = test system: SK-MEL-5 melanoma
[43] = test system: SN12C renal
[44] = test system: RPMI-8226 leukemia
[45] = test system: SK-MEL-28 melanoma
[46] = test system: HCT-116 colon
[47] = test system: A549 NSCLC
[48] = test system: CCRF-CEM leukemia
[49] = test system: CAKI-1 renal
[50] = test system: SF-295 CNS
[51] = test system: U251 CNS
[52] = test system: HOP-92 NSCLC
[53] = test system: OVCAR-5 ovarian
[54] = test system: M19-MEL melanoma
[55] = test system: TK-10 renal
[56] = test system: MOLT-4 leukemia
[57] = test system: 786-0 renal
[58] = test system: COLO 205 colon
[59] = test system: RXF-631 renal
[60] = test system: A498 renal
[61] = test system: SR leukemia
[62] = test system: UACC-257 melanoma
[63] = test system: NCI-H23 lung
[64] = test system: LXFL 529 NSCLC
[65] = test system: NCI-H522 lung
[66] = test system: ACHN renal
[67] = test system: EKVX NSCLC

With `CO[C@H]1C[C@@H]2CC[C@@H](C)[C@@](O)(O2)C(=O)C(=O)N2CCCC[C@H]2C(=O)O[C@H]([C@H](C)C[C@@H]2CC[C@@H](O)[C@H](OC)C2)CC(=O)[C@H](C)C=C(C)[C@@H](O)[C@@H](OC)C(=O)[C@H](C)C[C@H](C)/C=C/C=C/C=C1C` the GI50 [1] was 79.1 µM, the TGI [2] was 26.3 µM and 170 µM and the TGI [3] was 6.85 µM and 27 µM. The TGI [4] was 13.7 µM and 86.4 µM, the TGI [5] was 20.9 µM and the TGI [6] was 16.9 µM. The TGI [7] was 31.5 µM, the TGI [8] was 33.7 µM and the TGI [9] was 17.6 µM and 34.9 µM and 67.2 µM. For the same compound, the TGI [10] was 133 µM, the TGI [11] was 25.2 µM and the TGI [12] was 25.9 µM and 126 µM. The TGI [13] was 14.6 µM and 22.4 µM and 82.9 µM, the TGI [14] was 24.2 µM and 144 µM and the TGI [15] was 27.7 µM and 62 µM and 243 µM. For the same compound, the TGI [16] was 13.8 µM and 26.6 µM and 47.9 µM, the TGI [17] was 40.5 µM and 365 µM and the TGI [18] was 41.5 µM. The TGI [19] was 27.2 µM and 144 µM and the TGI [20] was 27.8 µM.
With `O=c1cc(O)ccn1C1C=C(CO)C(O)C1O` (centres undefined) the TGI [21] was > 625 µM, the TGI [22] was > 625 µM and the TGI [23] was > 625 µM. The TGI [24] was > 625 µM, the TGI [25] was > 625 µM and the TGI [26] was > 625 µM. For the same compound, the TGI [27] was > 625 µM, the TGI [28] was > 625 µM and the TGI [29] was > 625 µM. The TGI [3] was > 625 µM, the TGI [5] was > 625 µM and the TGI [30] was > 625 µM. For the same compound, the TGI [31] was > 625 µM, the TGI [6] was > 625 µM and the TGI [7] was > 625 µM. The TGI [8] was > 625 µM, the TGI [9] was > 625 µM and the TGI [10] was > 625 µM. The TGI [32] was > 625 µM, the TGI [33] was > 625 µM and the TGI [11] was > 625 µM. The TGI [34] was < 0.0625 µM, the TGI [13] was > 625 µM and the TGI [35] was > 625 µM. The TGI [36] was > 625 µM, the TGI [14] was > 625 µM and the TGI [15] was > 625 µM. The TGI [16] was > 625 µM, the TGI [37] was > 625 µM and the TGI [38] was > 625 µM. The TGI [39] was > 625 µM, the TGI [40] was > 625 µM and the TGI [41] was > 625 µM. For the same compound, the TGI [42] was > 625 µM, the TGI [43] was > 625 µM and the TGI [44] was > 625 µM. For the same compound, the TGI [45] was > 625 µM, the TGI [46] was > 625 µM and the TGI [47] was > 625 µM. The TGI [48] was > 625 µM, the TGI [18] was > 625 µM and the TGI [49] was > 625 µM. For the same compound, the TGI [50] was > 625 µM, the TGI [51] was > 625 µM and the TGI [52] was > 625 µM.
Work on `O=C(O)CCC(=O)N1C/C(=C\c2ccccc2)C(=O)/C(=C/c2ccccc2)C1` yielded a TGI [53] of 28.3 µM, a TGI [21] of 2.63 µM and a TGI [22] of 12.7 µM. For the same compound, the TGI [23] was 33 µM, the TGI [24] was 13.8 µM and the TGI [54] was 3.47 µM. For the same compound, the TGI [25] was 3.77 µM, the TGI [26] was 3.34 µM and the TGI [27] was 5.93 µM. The TGI [28] was 5.52 µM, the TGI [55] was 21.2 µM and the TGI [29] was 4.8 µM. For the same compound, the TGI [56] was 8.22 µM, the TGI [3] was 4.86 µM and the TGI [57] was 5.75 µM. The TGI [30] was 4.65 µM, the TGI [58] was 11.3 µM and the TGI [31] was 5.5 µM. For the same compound, the TGI [59] was 11.2 µM, the TGI [6] was 31.4 µM and the TGI [7] was 4.73 µM. The TGI [8] was 4.97 µM, the TGI [60] was 27.3 µM and the TGI [9] was 4 µM. For the same compound, the TGI [10] was 16.1 µM, the TGI [32] was 19.1 µM and the TGI [33] was 25.2 µM. The TGI [11] was 5.06 µM, the TGI [61] was 3.96 µM and the TGI [34] was 6.56 µM. For the same compound, the TGI [13] was 3.85 µM, the TGI [35] was 25.3 µM and the TGI [62] was 6.53 µM. The TGI [36] was 31.3 µM, the TGI [14] was 4.59 µM and the TGI [15] was 8.24 µM. It also gave a TGI [16] of 4.53 µM, a TGI [63] of 12.7 µM and a TGI [37] of 3.36 µM. For the same compound, the TGI [38] was 12.7 µM, the TGI [17] was > 24.6 µM and the TGI [64] was 7.17 µM. The TGI [41] was 34.3 µM, the TGI [42] was 6.9 µM and the TGI [65] was 3.38 µM. The TGI [66] was 4 µM, the TGI [43] was 3.52 µM and the TGI [44] was 19.9 µM. It also gave a TGI [45] of 3.55 µM, a TGI [46] of 3.16 µM and a TGI [47] of 34.5 µM. For the same compound, the TGI [67] was 15.9 µM, the TGI [48] was 9.93 µM and the TGI [18] was 9.89 µM. It also gave a TGI [49] of 14.9 µM, a TGI [50] of 6.03 µM and a TGI [19] of 5.39 µM. For the same compound, the TGI [51] was 3.29 µM and the TGI [52] was 30.8 µM.
